Results from publication PMC11434980, “Deciphering Chemical Rules for Drug Penetration into Strongyloides” (Pharmaceutics, 2024).
Entries after “also recorded” stand apart in the source; their conditions may differ. Read-outs that look alike come from different tables or passages of the source.

Key:
[1] = test system: S. venezuelensis L3s; assay: microbe, parasite or virus in culture; conditions: for significant activity against the L3s: L3 motility, 72 h of treatment
Experimental: (§1) Baerman-obtained S. venezuelensis L3s were rinsed twice with distilled water and counted, and 100 to 150 larvae were placed per well in 96-well flat-bottom culture plates. Larvae were incubated at 28 °C for 30 min to allow adaptation and treated with compounds in the range of 0.5–40 µM for 72 h at 28 °C in a humid atmosphere. Mortality was assessed as the lack of any movement detected during 1 min of observation under an inverted microscope (40×), at 24, 48, and 72 h after treatment. The ability to stain the larvae was pointed out when observed; at 72 h, larvae were collected and washed two times with distilled water and placed in a new well to remove the background color and photographed. Pictures were also taken at 24 and 48 h without cleaning the larvae so as not to interfere with the 72 h readout of the experiment. […] All experiments were conducted in triplicate and at least three different times. The antiparasitic activity of the compounds was expressed as the concentration that inhibited the motility of half of the larvae (immobilization concentration 50, IC50).
A total of 15 dyes were tested against S. venezuelensis L3s at a 20 µM concentration. The activity was determined by the number of larvae lacking motility relative to the total number in the well after 1 min of light excitation at 24, 48, and 72 h after treatment.

[2] = test system: S. venezuelensis L3s; assay: Staining (uptake) of L3 larvae by the dyes; type: cell-based, Strongyloides venezuelensis; conditions: for lowest staining concentration (Conc): 72 h
Experimental: as §1

[3] = Cytotoxicity, MTT method; type: cell-based, human; conditions: human; HeLa cells, 72 h, MTT; read-out: HeLa IC50 (antiproliferative activity / cytotoxicity)
Experimental: (§2) A cytotoxicity test was performed using the HeLa (human cervical cancer) cell line according to the MTT method. Cells were from the ATCC (Manassas, VA, USA). They were cultured at 37 °C in sub-confluent conditions under a 95% humidified atmosphere and 5% CO2 in Dulbecco’s Modified Eagle Medium (DMEM) (Gibco, Whaltman, MA, USA) supplemented with 10% heat-inactivated FBS, 2 mM L-glutamine, 100 U/mL penicillin, and 100 µg/mL streptomycin. […] The antiproliferative activity was measured in triplicate after 72 h using the MTT (3-(4,5-dimethylthiazol-2-yl)-2,5-diphenyltetrazolium bromide) Cell Proliferation Kit (Roche, Boston, MA, USA), following the manufacturer’s specifications. […] The selectivity index (SI = HeLa IC50/L3 IC50) for each compound was calculated to compare the antiparasitic activity with its respective human cell cytotoxicity.

[4] = test system: HeLa (human cervical cancer) cell line; assay: Cytotoxicity, MTT method; type: cell-based; conditions: for antiproliferative activity against HeLa cells at 10 µM / IC50: MTT; for IC50: HeLa cells, 72 h, read-out: HeLa IC50 (antiproliferative activity / cytotoxicity)
Experimental: as §2

[5] = test system: parasitic females of S. venezuelensis; assay: In vitro activity against adult females (movement categories); type: cell-based, Strongyloides venezuelensis; conditions: for effect on adult females / Activity against parasitic females 1 h / Activity against parasitic females 24 h / Activity against parasitic females 48 h / Activity against parasitic females 72 h: 10 µM, 50–70 worms per well; for Activity against Adults @10 µM 72 h: adult females
Experimental: Seven to nine days after infection, the mice or rats were euthanized and the small intestine was removed, sliced longitudinally, minced, and placed in a sedimentation cup wrapped in 8 layers of gauze in phosphate-buffered solution (PBS) for two hours at 37 °C. Parasitic females were collected from the sediment and washed twice with saline solution (NaCl 0.15 mol/L) and twice with Roswell Park Memorial Institute 1640 (RPMI 1640) (Gibco, Whaltman, MA, USA) supplemented with 10% heat-inactivated FBS, 100 µg/mL streptomycin, and 100 U/mL penicillin (Gibco, Whaltman, MA, USA) to avoid contamination during the in vitro assays. After collection, females were placed in 96-well plates with supplemented RPMI medium and kept at 37 °C. We tested three different female population densities to explore the effects on the measured activity: 1–3 females, 10–15 females, and 50–70 females per well. At 24 h after plating, the compounds were applied at 10 µM and the anti-parasitic activity was evaluated at 1, 24, 48, and 72 h after treatment based on movement for 30 s observation periods under the microscope (40×). […] All experiments were conducted in duplicate and at least three different times. […]

[6] = test system: parasitic females of S. venezuelensis; assay: Staining of adult females by the dyes; type: cell-based, Strongyloides venezuelensis; conditions: 10 µM; for Staining (Time): time at which staining of females was seen
[7] = L3S, 72 h, read-out: IC50 72 h (L3)
[8] = read-out: IC50 72 h (immobilization concentration 50 of cultured L3s), L3s, 72 h
[9] = read-out: IC50 24 h (immobilization concentration 50 of cultured L3s), L3s, 24 h
[10] = read-out: IC50 48 h (immobilization concentration 50 of cultured L3s), L3s, 48 h

Compound: Cc1c(C(=O)O)c(O)cc2c1C(=O)c1c(O)c(C3O[C@H](CO)[C@@H](O)[C@H](O)[C@H]3O)c(O)c(O)c1C2=O (stereo in doubt) [Carmine]
- significant activity against the L3s [1]: did not show significant activity
- Screening 20 µM 72 h ([1]; L3s, 72 h): No
- Staining 72 h (L3 staining ability) [2]: No

Compound: CCCSc1ccc2nc(NC(=O)OC)[nH]c2c1 [Albendazole]
- Screening 20 µM 72 h ([1]; L3s, 72 h): No
- activity against L3 at 40 µM ([1]; L3s): no activity
- IC50 at 72 h [3]: 0.3 µM
- selectivity index (SI = HeLa IC50/L3 IC50) [4]: < 0.0075
- effect on adult females [5]: slightly reduced movement
- Activity against parasitic females 1 h [5]: Healthy
- Activity against parasitic females 24 h [5]: Healthy
- Activity against parasitic females 48 h [5]: Slightly affected
- Activity against parasitic females 72 h [5]: Slightly affected

Compound: Cc1ccc2nc(NC(=O)c3cccnc3)sc2c1 [Compound 20, N-(6-methylbenzo[d]thiazol-2-yl)nicotinamide]
- IC50 [1, 7]: > 20 µM
- Activity against L3 @20 µM 72 h ([1]; L3s, 72 h): did not show any activity and no in vitro activity and No
- antiproliferative activity against HeLa cells at 10 µM [4]: no antiproliferative activity
- Activity against Adults @10 µM 72 h [5]: did not show any potency; also recorded: Healthy

Compound: Cc1ccc2nc(NC(=O)c3ccc(N4CCN(C)CC4)nc3)sc2c1 [Compound 22, N-(6-methylbenzo[d]thiazol-2-yl)-6-(4-methylpiperazin-1-yl)nicotinamide]
- IC50 [1, 7]: 8.6 ± 2.3 µM
- mortality at 20 µM ([1]; L3S, 72 h, read-out: L3 mortality rate): 100%
- Activity against L3 @20 µM 72 h ([1]; L3s, 72 h): Yes
- antiproliferative activity against HeLa cells at 10 µM [4]: no antiproliferative activity
- Activity against Adults @10 µM 72 h [5]: slightly affecting but not killing; also recorded: Slightly affected

Compound: Nc1c(/N=N/c2ccc(-c3ccc(/N=N/c4cc(S(=O)(=O)O)c5ccccc5c4N)cc3)cc2)cc(S(=O)(=O)O)c2ccccc12 [Congo Red]
- significant activity against the L3s [1]: did not show significant activity
- Screening 20 µM 72 h ([1]; L3s, 72 h): No
- Staining 72 h (L3 staining ability) [2]: No

Compound: CCCCCCCCCCCCCCCCCCOCC(COP(=O)([O-])OCC[N+](C)(C)C)OC (stereo not drawn) [Edelfosine]
- Screening 20 µM 72 h ([1]; L3s, 72 h): No

Compound: O=[N+]([O-])c1ccc2c(N=Nc3ccc4ccccc4c3O)c(O)cc(S(=O)(=O)[O-])c2c1.[Na+] [Eriochrome Black T]
- significant activity against the L3s [1]: did not show significant activity
- Screening 20 µM 72 h ([1]; L3s, 72 h): No
- IC50 [1, 8]: > 40 µM
- Staining 72 h (L3 staining ability) [2]: No

Compound: CC(=O)Oc1ccc2c(c1)Oc1cc(OC(C)=O)ccc1C21OC(=O)c2ccccc21 [Fluorescein Diacetate]
- significant activity against the L3s [1]: did not show significant activity
- Screening 20 µM 72 h ([1]; L3s, 72 h): No
- Staining 72 h (L3 staining ability) [2]: No

Compound: Cc1cc(C(=C2C=CC(=N)C=C2)c2ccc(N)cc2)ccc1N [Fuchsine]
- Screening 20 µM 72 h ([1]; L3s, 72 h): Active
- IC50 [1, 9]: 7.4 ± 1.3 µM
- IC50 [1, 10]: 6.8 ± 0.9 µM
- IC50 [1, 8]: 3.2 ± 0.4 µM
- Staining 72 h (L3 staining ability) [2]: Yes
- lowest staining concentration (Conc) [2]: 2 µM
- Staining of parasitic females [6]: No
- staining of adult females [6]: did not stain
- IC50 [4]: 1 µM
- Activity against parasitic females 1 h [5]: Healthy
- Activity against parasitic females 24 h [5]: Healthy
- Activity against parasitic females 48 h [5]: Healthy
- Activity against parasitic females 72 h [5]: Healthy

Compound: Oc1cc2c(cc1O)[C@@H]1c3ccc(O)c(O)c3OC[C@]1(O)C2 [Hematoxylin]
- significant activity against the L3s [1]: did not show significant activity
- Screening 20 µM 72 h ([1]; L3s, 72 h): No
- Staining 72 h (L3 staining ability) [2]: No

Compound: O=C1/C(=C2\Nc3ccc(S(=O)(=O)[O-])cc3C2=O)Nc2ccc(S(=O)(=O)[O-])cc21.[Na+].[Na+] [Indigo Carmine]
- significant activity against the L3s [1]: did not show significant activity
- Screening 20 µM 72 h ([1]; L3s, 72 h): No
- IC50 [1, 8]: > 40 µM
- Staining 72 h (L3 staining ability) [2]: No

Compound: COC(=O)Nc1nc2ccc(C(=O)c3ccccc3)cc2[nH]1 [Mebendazole]
- Screening 20 µM 72 h ([1]; L3s, 72 h): No
- activity against L3 at 40 µM ([1]; L3s): no activity
- IC50 at 72 h [3]: 0.2 µM
- selectivity index (SI = HeLa IC50/L3 IC50) [4]: < 0.005
- effect on adult females [5]: slightly reduced movement
- Activity against parasitic females 1 h [5]: Healthy
- Activity against parasitic females 24 h [5]: Healthy
- Activity against parasitic females 48 h [5]: Slightly affected
- Activity against parasitic females 72 h [5]: Slightly affected

Compound: CN(C)c1ccc(N=Nc2ccc(S(=O)(=O)[O-])cc2)cc1.[Na+] [Methyl Orange]
- significant activity against the L3s [1]: did not show significant activity
- Screening 20 µM 72 h ([1]; L3s, 72 h): No
- IC50 [1, 8]: > 40 µM
- Staining 72 h (L3 staining ability) [2]: No

Compound: CC[N+](C)(CC)CCC[n+]1c(-c2ccccc2)c2cc(N)ccc2c2ccc(N)cc21.[I-].[I-] [Propidium Iodide]
- Screening 20 µM 72 h ([1]; L3s, 72 h): Active
- IC50 [1, 9]: 14.5 ± 4.6 µM
- IC50 [1, 10]: 9.8 ± 3.2 µM
- IC50 [1, 8]: 4.3 ± 0.6 µM
- Staining 72 h (L3 staining ability) [2]: Yes
- lowest staining concentration (Conc) [2]: 3 µM
- Staining of parasitic females [6]: Yes
- staining of adult females [6]: living worms were not strongly stained
- Staining (Time) [6]: 72 h
- effect on adult females [5]: significantly affected
- Activity against parasitic females 1 h [5]: Slightly affected
- Activity against parasitic females 24 h [5]: Slightly affected
- Activity against parasitic females 48 h [5]: Slightly affected
- Activity against parasitic females 72 h [5]: Affected/Some deaths

Compound: Oc1ccc2ccccc2c1N=Nc1ccc(N=Nc2ccccc2)cc1 [Sudan III]
- significant activity against the L3s [1]: did not show significant activity
- Screening 20 µM 72 h ([1]; L3s, 72 h): No
- IC50 [1, 8]: > 40 µM
- Staining 72 h (L3 staining ability) [2]: No

Compound: Cc1cc(-c2ccc(/N=N/c3c(S(=O)(=O)O)cc4cc(S(=O)(=O)O)cc(N)c4c3O)c(C)c2)ccc1/N=N/c1c(S(=O)(=O)O)cc2cc(S(=O)(=O)O)cc(N)c2c1O [Trypan Blue]
- significant activity against the L3s [1]: did not show significant activity
- Staining 72 h (L3 staining ability) [2]: Yes
- lowest staining concentration (Conc) [2]: 20 µM
- IC50 at 72 h [3]: > 10 µM

Compound: Brilliant Cresyl Blue
- Screening 20 µM 72 h ([1]; L3s, 72 h): Active
- IC50 [1, 9]: 14 ± 4.1 µM
- IC50 [1, 10]: 9.6 ± 0.6 µM
- IC50 [1, 8]: 6.8 ± 0.7 µM
- Staining 72 h (L3 staining ability) [2]: Yes
- lowest staining concentration (Conc) [2]: 2.5 µM
- Staining of parasitic females [6]: Yes
- staining of adult females [6]: stained adult females after 24 h in some localized structures
- Staining (Time) [6]: 24 h
- IC50 [4]: > 250 µM
- effect on adult females [5]: significantly affected
- Activity against parasitic females 1 h [5]: Healthy
- Activity against parasitic females 24 h [5]: Slightly affected
- Activity against parasitic females 48 h [5]: Affected
- Activity against parasitic females 72 h [5]: Affected
